# Results reported in patent US9884856B2, “Crystal form of Dabrafenib mesylate and preparation method thereof” (Hangzhou Pushai Pharmaceutical Technology Co., LTD., priority 2013, dated 2018).
# “And” between values parts separate entries of the source, which are not always exact repeats. Equal entries are not always repeated. “Also recorded” adds a separate entry of the source.
# Assays:
# [1] = Decomposition temperature by TGA; type: physicochemical; settings: methanesulfonate
# Procedure: The thermogravimetric analysis (TGA) data are collected by TA Instruments Q500 TGA; the instrument control software is Thermal Advantage and the analysis software is Universal Analysis. Generally, take 5˜15 mg sample and place it in a platinum pan, adopt the segmental high-resolution testing mode, and under the protection of 50 mL/min dry N2, heat the sample from room temperature to 350° C. at the heating rate of 10° C./min, the weight changes of the sample during the course are recorded by TA software simultaneously.
# Compare decomposition temperatures obtained by TGA tests.
# [2] = Storage stability of crystal forms (XRPD before and after placement); type: physicochemical; settings: methanesulfonate
# Procedure: (§1) The stability is performed by comparing the storage stability and the stirring test in water on crystalline forms.
# The storage stability is performed by placing the samples under a constant condition (i.e. under constant humidity or constant temperature) for a certain period of time, and then comparing their XRPDs before and after placement.
# [3] = Stirring test in water (XRPD comparison); type: physicochemical; settings: methanesulfonate; for Stirring test in water: form after stirring: 10 mg in 1 mL water; for Stability in water or aqueous system(s): general statement
# Procedure: as §1
# The stirring test in water is performed by, for each crystalline form, adding an equal amount of the sample (10 mg) to an equal amount of water (1 mL) to form a suspension, stirring the suspensions for a certain time at room temperature, and then comparing their XRPDs.
# [4] = Hygroscopicity by dynamic vapor sorption (DVS); type: physicochemical
# Procedure: The dynamic vapor sorption analysis (DVS) data are collected by TA Instruments Q5000 TGA; the instrument control software is Thermal Advantage and the analysis software is Universal Analysis. Generally, take 1˜10 mg of the sample and place it in a platinum pan, and the weight changes of the sample are recorded during the course of the relative humidity changing from 0% to 80% and then to 0%. According to the specifics of the samples, different adsorption and desorption steps may be used.
# Compare hygroscopicity in weight changes of samples between 20%-80% RH obtained by DVS tests.
# [5] = Dissolution profile in ultrapure water (HPLC); type: physicochemical; settings: for Dissolution: ultrapure water
# Procedure: The analysis data of high performance liquid chromatography (HPLC) are collected by Agilent 1260 with the chemical working station of B.04. The corresponding HPLC parameters in this research are: chromatographic column SB-C18 250×4.6 mm 5 μm; column temperature 35° C.; flow rate 0.6 mL/min; flow phase as shown below; wavelength 254 nm; sample inject volume 20 μl; operation time 30 min.
# The comparison of dissolution profiles is performed by the following procedures: place about 6 mg the sample in a […], add 15 mL ultrapure water, and then seal the vial. A suspension is obtained from sonication with a working power of 40 Khz at room temperature, then take 1 mL of the suspension at 10 min, 30 min, 2 hr and 6 hr, respectively; filter it with 0.45 μm organic filter membrane to, take the filtrate to be measured by HPLC; stir the remaining suspension for 16 hr at room temperature, and then filter it with 0.45 μm organic filter membrane, take the filtrate to be measured by HPLC. FIG. 15 is the comparison plot of dissolution profiles of Crystal Form IV and the Known Crystal Form I in Experimental Example 1 (▴ refers to Crystal Form IV, ▮ refers to the Known Crystal Form I).
# [6] = Stability during wet granulation in formulation process (XRPD); type: physicochemical; settings: methanesulfonate; for Form of API in wet granule sample (XRPD): wet granulation with 50% aqueous ethanol, lactose monohydrate, microcrystalline cellulose
# From the text: The stability of the Known Crystal Form I of Dabrafenib methanesulfonate and Crystal Form IV of the present invention during wet granulation in formulation process was studied.
# Wet granulation experiments in the formulation process were parallel experiments. The specific steps are:
# 1) Blend API (the Known Crystal Form I or Crystal Form IV of the present invention), lactose (monohydrate) and microcrystalline cellulose uniformly.
# 2) Make the above mixture into soft materials by using appropriate amount of 50% aqueous ethanol solution, screen to produce wet granules.
# 3) Dry the wet granules and then granulate them, blend with polyethylene glycol 6000 uniformly and then compress them into tablets.
# Characterize the Known Crystal Form I and Crystal Form IV of the present invention samples obtained from the formulation process of: (1) the sample obtained from physically mixing lactose monohydrate and microcrystalline cellulose at the ratios per the formulation; (2) the sample obtained from physically mixing of API, lactose monohydrate and microcrystalline cellulose at the ratios per the formulation; (3) the wet granule sample obtained from the wet granulation process (excluding the compressed tablets in Step 3). See XRPDs in FIG. 16 and FIG. 17.
# [7] = tested on: one or more Raf-family kinases; settings: disclosed in WO2009/137391 and CN200980126781.6; cited from earlier work
# BRAFV600E-mutan melanoma = settings: patients with BRAFV600E-mutan melanoma; cited from earlier work
# [8] = stored for 1 month at room temperature - 97% RH
# [9] = stored for 1 month at room temperature
# [10] = stirred 15 min at room temperature
# [11] = 6 hours + 16 hours stirring at room temperature, methanesulfonate
# [12] = sonication, room temperature, 10 minutes, methanesulfonate
# [13] = sonication, room temperature, 30 minutes, methanesulfonate
# [14] = sonication, room temperature, 2 hours, methanesulfonate
# [15] = sonication, room temperature, 6 hours, methanesulfonate
Structure (SMILES),"Storage stability (crystal form) [2, 8]","Storage stability (crystal form) [2, 9]","Stirring test in water: form after stirring [3, 10]",Stability in water or aqueous system(s) [3],"Dissolution [5, 11]","Dissolution [5, 12]","Dissolution [5, 13]","Dissolution [5, 14]","Dissolution [5, 15]",Stability in the wet granulation process [6],Form of API in wet granule sample (XRPD) [6],other results
"CC(C)(C)c1nc(-c2cccc(NS(=O)(=O)c3c(F)cccc3F)c2F)c(-c2ccnc(N)n2)s1 [Crystal Form II, N-[3-[5-(2-amino-4-pyrimidinyl)-2-(tert-butyl)-thiazol-4-yl]-2-fluorophenyl]-2,6-difluorobenzene sulfonamide methanesulfonate]",–,–,–,–,–,–,–,–,–,–,–,Decomposition temperature [1]: 287 °C
"CC(C)(C)c1nc(-c2cccc(NS(=O)(=O)c3c(F)cccc3F)c2F)c(-c2ccnc(N)n2)s1 [Crystal Form IV, N-[3-[5-(2-amino-4-pyrimidinyl)-2-(tert-butyl)-thiazol-4-yl]-2-fluorophenyl]-2,6-difluorobenzene sulfonamide methanesulfonate]","remained unchanged and stable and 97% RH, respectively, the crystal forms remained unchanged.","remained unchanged and stable and 97% RH, respectively, the crystal forms remained unchanged.",still remained as methanesulfonate; also recorded: still remains its Crystal Form IV of methanesulfonate; also recorded: remained as methanesulfonate and after,better stability in water or aqueous system(s),0.000178 mg/mL,0.000532 mg/mL,0.000303 mg/mL,0.000376 mg/mL,0.000488 mg/mL,stable,remained as Crystal Form IV,"Stirring test in water: form after stirring ([3]; stirred overnight at room temperature): converted to its free base; also recorded: converts to its free base monohydrate; also recorded: free base (FIG. 14); Weight change (dynamic vapor sorption) ([4]; between 20% RH-80% RH): 2.0%; Dissolution rate / dissolution quantity compared with the Known Crystal Form I ([5]; 0~22 h, any test point, methanesulfonate): higher than that of the Known Crystal Form I at any test point; also recorded: larger than that of the Known Crystal Form I at any test point; Time to the end point in water during dissolution ([5]; compared with the Known Crystal Form I): Form IV is shorter than that of the Known Crystal Form I."
"CC(C)(C)c1nc(-c2cccc(NS(=O)(=O)c3c(F)cccc3F)c2F)c(-c2ccnc(N)n2)s1 [Dabrafenib methanesulfonate, N-[3-[5-(2-amino-4-pyrimidinyl)-2-(tert-butyl)-thiazol-4-yl]-2-fluorophenyl]-2,6-difluorobenzene sulfonamide methanesulfonate]",–,–,–,–,–,–,–,–,–,–,–,Inhibitory effects on Raf-family kinases [7]: exhibited inhibitory effects
CC(C)(C)c1nc(-c2cccc(NS(=O)(=O)c3c(F)cccc3F)c2F)c(-c2ccnc(N)n2)s1 [Dabrafenib],–,–,–,–,–,–,–,–,–,–,–,Safety profile (BRAFV600E-mutan melanoma): acceptable safety profile; Therapeutic activity (BRAFV600E-mutan melanoma): has therapeutic activities
"CC(C)(C)c1nc(-c2cccc(NS(=O)(=O)c3c(F)cccc3F)c2F)c(-c2ccnc(N)n2)s1 [Known Crystal Form I, N-[3-[5-(2-amino-4-pyrimidinyl)-2-(tert-butyl)-thiazol-4-yl]-2-fluorophenyl]-2,6-difluorobenzene sulfonamide methanesulfonate, reference compound]","remained unchanged and 97% RH, respectively, the crystal forms remained unchanged.","remained unchanged and 97% RH, respectively, the crystal forms remained unchanged.","consistent with the above-mentioned Dabrafenib free base hydrate; also recorded: converted to its free base; also recorded: converts to its free base monohydrate; also recorded: min, it converted to the free",readily converts to free base,7.48e-05 mg/mL,0.00012 mg/mL,7.23e-05 mg/mL,9.28e-05 mg/mL,8.88e-05 mg/mL,unstable,partially or totally converted to Dabrafenib free base hydrate,"Form stability under humidity ([4]; 25° C. and 20-80% RH, methanesulfonate): stable at 25 °C and 20-; Hygroscopicity ([4]; DVS): Non-hygroscopic; the form is"
